Among the data in BindingDB's records for patent US11814384 (Kinnate Biopharma, 2023) are IC50 values, retold here.

Each structure is given as a SMILES string. Entries after “also recorded” stand apart in the source; their conditions may differ.

Sequence of Serine/threonine-protein kinase B-raf (P15056 whole entry): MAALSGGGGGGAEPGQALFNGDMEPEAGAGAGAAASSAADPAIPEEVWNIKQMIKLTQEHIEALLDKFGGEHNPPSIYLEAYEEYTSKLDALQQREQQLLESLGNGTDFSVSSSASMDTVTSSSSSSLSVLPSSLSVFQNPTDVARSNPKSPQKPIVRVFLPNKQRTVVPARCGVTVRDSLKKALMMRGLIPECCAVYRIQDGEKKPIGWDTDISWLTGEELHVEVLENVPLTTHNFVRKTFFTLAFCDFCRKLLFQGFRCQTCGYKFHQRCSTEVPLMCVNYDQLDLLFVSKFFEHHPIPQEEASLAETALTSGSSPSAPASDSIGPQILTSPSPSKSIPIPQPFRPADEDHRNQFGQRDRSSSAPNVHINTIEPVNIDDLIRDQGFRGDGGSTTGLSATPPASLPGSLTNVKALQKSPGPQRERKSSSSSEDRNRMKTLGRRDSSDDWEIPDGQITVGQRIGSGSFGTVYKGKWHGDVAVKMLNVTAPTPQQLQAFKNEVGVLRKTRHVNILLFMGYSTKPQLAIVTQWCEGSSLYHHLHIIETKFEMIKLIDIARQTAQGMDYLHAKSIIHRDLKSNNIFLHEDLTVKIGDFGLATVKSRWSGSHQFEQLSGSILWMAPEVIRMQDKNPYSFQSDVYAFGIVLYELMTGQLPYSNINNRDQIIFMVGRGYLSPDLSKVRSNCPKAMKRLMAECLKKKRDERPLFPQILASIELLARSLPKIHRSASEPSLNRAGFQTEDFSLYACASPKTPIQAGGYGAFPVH

This test has as its target Serine/threonine-protein kinase B-raf (Homo sapiens, UniProt P15056). The experiment in a line: Enzymatic BRAF Kinase Activity Assay. As to the method:
Small molecule inhibition of the BRAF kinases was measured using ADP-Glo assay. In the assay, […], resulting in luciferase reaction and luminescent readout with light generated proportional to the relative kinase activity. Compounds diluted in DMSO were used in 10-point, 3-fold dose curve for both assays. Final concentrations of 6 nM BRAF (CarnaBio, Cat. 09-122) or 3 nM RAF1 (CarnaBio, Cat. 09-125) and 30 nM MEK1 substrate (Millipore, Cat. 14-420) were incubated with 3 µM ATP, 10 mM MgCl2, 0.003% Brij-35, 2 mM DTT, 0.05% BSA, 1 mM EGTA, and 50 mM HEPES for 90 minutes at room temp prior to addition of ADP-Glo reagent (Promega, Cat. V9102) for 40 minutes, and detection reagent for 45 minutes. Luminescence was read on an Envision plate reader (PerkinElmer) and percent remaining activity was used to calculate IC50 using a four-parameter fit model using Dotmatics Knowledge Solutions Studies curve fitting (Dotmatics, Bishops Stortford, UK, CM23).
Consider `Cc1cc(F)c(C(=O)Nc2cnn(C(C)(C)C)c2F)cc1-c1cc(N2CCOCC2)c2nc(C(C)C)nn2c1` [US11814384, Example 308], for which the IC50 result is “in the range around 5.5 nM”.
For the compound `Cc1nc2cc(-c3cc(NC(=O)c4cnn(C(C)(C)C)c4F)c(F)cc3C)cc(N3CCOCC3)n2n1` [US11814384, Example 282], the half-inhibitory concentration (IC50) entry is “in the range around 55 nM”.
Take `Cc1nc2c(N3CCOCC3)cc(-c3cc(C(=O)Nc4cnn(C(C)(C)C)c4F)c(F)cc3C)cn2n1` [US11814384, Example 285]: the IC50 entry is “in the range around 5.5 nM”.
With `Cc1nc2c(N3CCOCC3)cc(-c3cc(C(=O)Nc4cn(C5(C)CC5)nc4F)c(F)cc3C)cn2n1` [US11814384, Example 310], the 50% inhibitory concentration (IC50) entry was “in the range around 5.5 nM”.
Turning to `Cc1cn2cc(-c3cc(NC(=O)c4cnn(C(C)(C)C)c4F)c(F)cc3C)cc(N3CCOCC3)c2n1` [US11814384, Example 143], the concentration for half-maximal inhibition (IC50) result is “in the range around 5.5 nM”.
Consider `CC(C)(C)n1cc(C(=O)Nc2cc(-c3cc(N4CCOCC4)c4nccn4c3)c(Cl)cc2F)nc1F` [US11814384, Example 151], for which the 50% inhibitory concentration (IC50) entry was “in the range around 5.5 nM”.
With `Cc1c(-c2cc(N3CCOCC3)c3nccn3c2)cc(NC(=O)c2cnn(C(C)(C)C)c2F)c(F)c1F` [US11814384, Example 159], the half-maximal inhibitory concentration (IC50) result was “in the range around 5.5 nM”.
Next, `Cc1cc(F)c(NC(=O)c2cc(F)n(C3(C)CC3)c2)cc1-c1cc(N2CCOCC2)c2nccn2c1` [US11814384, Example 247]: “in the range around 55 nM”.
Turning to `Cc1cc(F)c(NC(=O)c2nn(C(C)(C)C)cc2F)cc1-c1cc(N2CCOCC2)c2nccn2c1` [US11814384, Example 141], the IC50 entry is “in the range around 5.5 nM”.
In the case of `Cc1cc(F)c(NC(=O)c2cnc(C(C)(C)C)o2)cc1-c1cc(N2CCOCC2)c2nccn2c1` [US11814384, Example 183], the half-inhibitory concentration (IC50) entry was “in the range around 5.5 nM”.
For the compound `Cc1cc(F)c(NC(=O)N2CCC(C3(C(F)(F)F)CC3)C2)cc1-c1cc(N2CCOCC2)c2nccn2c1` (centres undefined) [US11814384, Example 60], the IC50 result is “in the range around 5.5 nM; also recorded: in the range around 55 nM”.
Next, `Cc1cc(F)c(NC(=O)N2CC[C@@H](CC(F)(F)F)C2)cc1-c1cc(N2CCOCC2)c2nn(C)cc2c1` [US11814384, Example 1]: “in the range around 5.5 nM”; `Cc1cc(F)c(NC(=O)c2ccnc3c2ccn3C(C)C)cc1-c1cc(N2CCOCC2)c2nccn2c1` [US11814384, Example 206]: “in the range around 5.5 nM”.
The result for `Cc1cc(F)c(NC(=O)c2cn(C(C)(C)C)c(F)n2)cc1-c1cc(N2CCOCC2)c2nccn2c1` [US11814384, Example 118] reads “in the range around 5.5 nM”; that for `Cc1cc(F)c(NC(=O)c2cnn(C(C)(C)C)c2F)cc1-c1cc(N2CCOCC2)c2nccn2c1` [US11814384, Example 103], “in the range around 5.5 nM”.
In the case of `Cc1cc(F)c(NC(=O)c2cnn(C(C)(C)C)c2F)cc1-c1cc(N2CCOCC2)c2nnnn2c1` [US11814384, Example 220], the half-maximal inhibitory concentration (IC50) entry is “in the range around 55 nM”.
For the compound `Cc1cc(F)c(C(=O)Nc2cnn(C(C)(C)C)c2F)cc1-c1cc(N2CCOCC2)c2nc(N(C)C)nn2c1` [US11814384, Example 309], the IC50 result was “in the range around 5.5 nM”.
The result for `Cc1cc(F)c(NC(=O)c2ccnc(C(C)C(F)F)c2)cc1-c1cc(N2CCOCC2)c2nccn2c1` (centres undefined) [US11814384, Example 113] reads “in the range around 5.5 nM”; that for `Cc1cnc(NC(=O)c2cnn(C(C)(C)C)c2F)cc1-c1cc(N2CCOCC2)c2nccn2c1` [US11814384, Example 138], “in the range around 5.5 nM”.
For the compound `Cc1nc2cc(-c3cc(NC(=O)c4coc(C(C)(C)C)n4)c(F)cc3C)cc(N3CCOCC3)n2n1` [US11814384, Example 292], the half-inhibitory concentration (IC50) entry was “in the range around 55 nM”.
With `Cc1cn2nc(-c3cc(NC(=O)c4cnn(C(C)(C)C)c4F)c(F)cc3C)cc(N3CCOCC3)c2n1` [US11814384, Example 265], the half-inhibitory concentration (IC50) entry was “in the range around 5.5 nM”.
The result for `Cc1cc(F)c(NC(=O)c2cnn(C(C)(C)C)c2F)cc1-c1cc(N2CCOCC2)n2nccc2c1` [US11814384, Example 162] reads “in the range around 5.5 nM”; that for `Cc1cc(F)c(C(=O)Nc2cnn(C(C)(C)C)c2F)cc1-c1cc(N2CCOCC2)c2nccn2n1` [US11814384, Example 260], “in the range around 5.5 nM”.
In the case of `Cc1cc(F)c(C(=O)Nc2cnn(C(C)(C)C)c2F)cc1-c1cc(N2CCOCC2)n2nc(C3CC3)nc2c1` [US11814384, Example 307], the IC50 entry was “in the range around 5.5 nM”.
Regarding `Cc1ccc(NC(=O)c2ccnc(C(F)(F)F)c2)cc1-c1cc(N2CCOCC2)c2nc3c(n2c1)COCC3` [US11814384, Example 33], the IC50 entry was “in the range around 5.5 nM”.
As to `CCc1nc2cc(-c3cc(C(=O)Nc4cn(C(C)(C)C)nc4F)c(F)cc3C)cc(N3CCOCC3)n2n1` [US11814384, Example 76], the 50% inhibitory concentration (IC50) entry is “in the range around 5.5 nM”.
Consider `Cc1cc(F)c(NC(=O)c2cnc(C(C)(C)C)o2)cc1-c1cc(N2CCOCC2)n2nc(C3CC3)nc2c1` [US11814384, Example 304], for which the concentration for half-maximal inhibition (IC50) entry is “in the range around 5.5 nM”.
In the case of `Cc1cc(F)c(NC(=O)c2cn(C(C)(C)C)cc2F)cc1-c1cc(N2CCOCC2)c2nccn2c1` [US11814384, Example 66], the IC50 entry is “in the range around 5.5 nM”.
With `Cc1cc(F)c(C(=O)Nc2cccc(C(C)(C)C)c2)cc1-c1cc(N2CCOCC2)c2nccn2c1` [US11814384, Example 205], the IC50 entry is “in the range around 55 nM”.
`Cc1ccc(NC(=O)c2cnn(C(C)(C)C)c2F)cc1-c1cc(N2CCOCC2)c2nc(C)c(F)n2c1` [US11814384, Example 274]: the IC50 result was “in the range around 5.5 nM”.
Turning to `Cc1cc(F)c(NC(=O)c2cnn(C(C)(C)C)c2F)cc1-c1cc(N2CCOCC2)c2nc(C)c(F)n2c1` [US11814384, Example 273], the half-inhibitory concentration (IC50) entry is “in the range around 5.5 nM”.
For the compound `Cc1ccc(NC(=O)c2cc(C(C)(C)C)ncc2F)cc1-c1cc(N2CCOCC2)c2nccn2c1` [US11814384, Example 95], the IC50 result is “in the range around 55 nM”.
Consider `CC(C)(C)n1ncc(C(=O)Nc2cc(-c3cc(N4CCOCC4)c4nccn4c3)c(Cl)cn2)c1F` [US11814384, Example 226], for which the IC50 result was “in the range around 5.5 nM”.
In the case of `Cc1cc(F)c(NC(=O)N2CCOC(C(C)(C)C)C2)cc1-c1cc(N2CCOCC2)c2nccn2c1` (centres undefined) [US11814384, Example 50], the IC50 entry is “in the range around 5.5 nM”.
Next, `Cc1cc(F)c(NC(=O)c2cncc(C(C)(F)F)c2)cc1-c1cc(N2CCOCC2)c2nccn2c1` [US11814384, Example 84]: “in the range around 5.5 nM”; `Cc1cc(F)c(NC(=O)c2cnn(C(C)(C)C)c2F)cc1-c1cc(C2=CCOCC2)c2nccn2c1` [US11814384, Example 153]: “in the range around 5.5 nM”.
Turning to `Cc1ncc(NC(=O)c2cnn(C(C)(C)C)c2F)cc1-c1cc(N2CCOCC2)c2nccn2c1` [US11814384, Example 137], the IC50 result was “in the range around 5.5 nM”.
As for `Cc1cc(F)c(NC(=O)[C@@H]2CCN(CC(F)(F)F)C2)cc1-c1cc(N2CCOCC2)c2nccn2c1` [US11814384, Example 46], the IC50 entry is “in the range around 5.5 nM”.
As for `Cc1cc(F)c(N)cc1-c1cc(N2CCOCC2)c2nccn2c1` [US11814384, Example 112], the half-inhibitory concentration (IC50) result is “in the range around 55 nM”.
`Cc1cc(F)c(NC(=O)c2cnn(C(C)(C)C)c2F)cc1-c1cc(N2CCOCC2)c2ncnn2c1` [US11814384, Example 181]: the 50% inhibitory concentration (IC50) result is “in the range around 5.5 nM”.
`Cc1cc(F)c(NC(=O)c2cnn(C34CC(C3)C4)c2)cc1-c1cc(N2CCOCC2)c2nccn2c1` [US11814384, Example 164]: the 50% inhibitory concentration (IC50) result is “in the range around 5.5 nM”.
The result for `Cc1cc(F)c(NC(=O)c2cnn(C(C)(C)C)n2)cc1-c1cc(N2CCOCC2)c2nccn2c1` [US11814384, Example 186] reads “in the range around 5.5 nM”; that for `Cc1ccc(NC(=O)c2cnn(C(C)(C)C)c2F)cc1-c1cc(N2CCOCC2)c2nccn2c1` [US11814384, Example 73], “in the range around 5.5 nM”; that for `Cc1cc(F)c(NC(=O)c2cnn(C(C)(C)C)c2F)cc1-c1cn2ccnc2c(N2CCOCC2)n1` [US11814384, Example 228], “in the range around 5.5 nM”.
Consider `Cc1ccc(NC(=O)c2ccnc(C(F)(F)F)c2)cc1-c1cc(N2CCOCC2)c2nc3c(n2c1)CCOC3` [US11814384, Example 36], for which the concentration for half-maximal inhibition (IC50) entry is “in the range around 5.5 nM”.
With `CCc1nc2cc(-c3cc(C(=O)Nc4cnn(C(C)(C)C)c4F)c(F)cc3C)cc(N3CCOCC3)n2n1` [US11814384, Example 306], the IC50 entry was “in the range around 5.5 nM”.
In the case of `Cc1cc(F)c(NC(=O)c2cn(C(C)(C)C)cn2)cc1-c1cc(N2CCOCC2)c2nccn2c1` [US11814384, Example 67], the IC50 result is “in the range around 5.5 nM”.
As for `CC(C)(C)n1ncc(C(=O)Nc2ccc(Cl)c(-c3cc(N4CCOCC4)c4nccn4c3)c2)c1F` [US11814384, Example 110], the IC50 result was “in the range around 5.5 nM”.
For `Cc1cn2cc(-c3cc(NC(=O)c4cn(C(C)(C)C)c(F)n4)c(F)cc3C)cc(N3CCOCC3)c2n1` [US11814384, Example 148], the IC50 result was “in the range around 5.5 nM”.

The IC50 is the midpoint of a concentration-inhibition curve. A higher IC50 goes with weaker potency in that assay.
